In patent US20150353495A1 (PORTOLA PHARMACEUTICALS, INC., priority 2010, published 2015):

How the values were obtained:
Format in all cases: biochemical
[1] = target: T1, JAK1 (Homo sapiens, UniProt P23458); test: Z'-LYTE kinase assay JAK1
T1 construct: 5 μl of catalytic domain recombinant Kinase enzyme+Tyr peptide substrate (Invitrogen, CA); purchased Invitrogen
Method in brief: (§1)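 Catalytic-domain recombinant kinase was incubated with Tyr6 FRET peptide, ATP and compound (1% DMSO final) for 1 h at room temperature. Protease development followed for 1 h, cleaving only non-phosphorylated peptide. Inhibition of phosphorylation was read as coumarin/fluorescein FRET fluorescence.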

[2] = target: T2, JAK3 (Homo sapiens, UniProt P52333); test: Z'-LYTE kinase assay JAK3
T2 construct: 5 μl of catalytic domain recombinant Kinase enzyme+Tyr peptide substrate (Invitrogen, CA); purchased Invitrogen
T2 sequence (P52333 822-1111 limits assumed): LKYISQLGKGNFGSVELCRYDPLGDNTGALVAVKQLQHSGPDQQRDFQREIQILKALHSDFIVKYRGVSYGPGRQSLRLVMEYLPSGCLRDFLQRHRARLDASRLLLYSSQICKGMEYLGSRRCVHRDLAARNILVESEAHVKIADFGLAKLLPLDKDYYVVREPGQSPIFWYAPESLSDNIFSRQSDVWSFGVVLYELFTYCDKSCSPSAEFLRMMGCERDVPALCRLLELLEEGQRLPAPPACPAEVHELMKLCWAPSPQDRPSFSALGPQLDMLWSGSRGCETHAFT
Method in brief: as §1

[3] = target: T3, TYK2 (Homo sapiens, UniProt P29597); test: Z'-LYTE kinase assay TYK2
T3 construct: 5 μl of catalytic domain recombinant Kinase enzyme+Tyr peptide substrate (Invitrogen, CA); purchased Invitrogen
T3 sequence (P29597 897-1176 limits assumed): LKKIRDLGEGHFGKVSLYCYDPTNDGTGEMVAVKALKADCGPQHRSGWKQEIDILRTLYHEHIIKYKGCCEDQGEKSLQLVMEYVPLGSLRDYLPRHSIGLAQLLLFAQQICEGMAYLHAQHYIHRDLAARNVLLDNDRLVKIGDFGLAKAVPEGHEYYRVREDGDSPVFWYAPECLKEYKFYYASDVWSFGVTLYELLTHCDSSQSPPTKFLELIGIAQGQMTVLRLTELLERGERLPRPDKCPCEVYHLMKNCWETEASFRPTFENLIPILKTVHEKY
Method: JAK and TYK2 tyrosine phosphorylation activity is measured using the Z′-LYTE™ Technology developed by Invitrogen Corporation (Carlsbad, Calif.). For JAK1, JAK2 and JAK3 the Z′-LYTE™ Kinase Assay Kit-Tyr6 Peptide (part number PV4122) was used. For TYK2 the Z′-LYTE™ Kinase Assay Kit-Tyr6 Peptide (part number PV3192) was used. The Z′-LYTE™ biochemical assay employs a fluorescence resonance energy transfer (FRET) coupled-enzyme format and is based on the differential sensitivity of phosphorylated and non-phosphorylated peptides to proteolitic cleavage. The assay uses a synthetic peptide substrate that is labelled with a donor fluorophore (coumarin) and an acceptor fluorophore (fluorescein) that make up a FRET pair. In the primary reaction (the Kinase Reaction), the kinase transfers the γ-phosphate of ATP to a single tyrosine residue on the substrate, while the presence of a kinase inhibitor in the primary reaction suppresses phosphorylation. In the secondary reaction (the Development Reaction), a site-specific protease (the Development Reagent) is added. The development buffer quenches the Kinase Reaction, while the protease recognizes and cleaves non-phosphorylated Z′-LYTE™ peptide substrate. Cleavage disrupts FRET between the donor and acceptor fluorophores on the non-phosphoryleted substrate, while uncleaved, phosphorylated substrate maintains FRET.
To test the ability of candidate molecules to inhibit JAK tyrosine phosphorylation activity, molecules are reconstituted in 100% DMSO and serially diluted 1:10 in polypropylene v-bottom microtiter plates. The candidate molecules are then diluted 1:25 into kinase buffer and 2.5 μl transferred into duplicate wells of a 384 well low volume black microtiter assay plate (Corning, USA). The final DMSO concentration in the assay is 1%. The kinase reaction contains 2.5 μl of a candidate molecule, 5 μl of catalytic domain recombinant Kinase enzyme+Tyr peptide substrate (Invitrogen, CA) and 2.5 μl ATP (Invitrogen, CA). The kinase reaction is allowed to procede for 1 hour at room temperature. The protease reaction is initiated by the addition of 5 μl Development Reagent (Invitrogen, CA). After 1 hour incubation at room temperature the fluorescence is measured using a FlexStation plate reader (Molecular Devices, Sunnyvale, Calif.). The reader settings used are as follows: Fluorescence mode, endpoint, top read, excitation 400 nm, emission 445 nm and 520 nm, Auto Cutoff 435 nm and 515 nm, PMT sensitivity high, 6 reads per well Inhibition of JAK kinase activity is calculated as the percent phosphorylation of substrate in the presence of inhibitor compared to the percent phosphorylation of substrate in the absence of inhibitor. IC50's were derived using Xlfit 4.3 (IDBS, UK), 4 parameter logistic model 205: Y=(A+4B-A)/(1+((C/x)AD)))).

[4] = target: T4, JAK2 (Homo sapiens, UniProt O60674); test: Z'-LYTE kinase assay JAK2
T4 construct: 5 μl of catalytic domain recombinant Kinase enzyme+Tyr peptide substrate (Invitrogen, CA); purchased Invitrogen
T4 sequence (O60674 849-1124 limits assumed): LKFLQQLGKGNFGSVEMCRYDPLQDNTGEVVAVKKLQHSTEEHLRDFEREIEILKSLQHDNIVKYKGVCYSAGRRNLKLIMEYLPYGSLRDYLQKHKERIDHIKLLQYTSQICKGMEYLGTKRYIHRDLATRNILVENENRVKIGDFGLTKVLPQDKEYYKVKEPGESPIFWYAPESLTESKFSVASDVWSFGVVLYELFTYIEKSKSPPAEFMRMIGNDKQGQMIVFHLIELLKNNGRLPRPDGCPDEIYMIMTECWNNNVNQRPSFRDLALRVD
Method in brief: as §1

T1 sequence (P23458 875-1153 limits assumed): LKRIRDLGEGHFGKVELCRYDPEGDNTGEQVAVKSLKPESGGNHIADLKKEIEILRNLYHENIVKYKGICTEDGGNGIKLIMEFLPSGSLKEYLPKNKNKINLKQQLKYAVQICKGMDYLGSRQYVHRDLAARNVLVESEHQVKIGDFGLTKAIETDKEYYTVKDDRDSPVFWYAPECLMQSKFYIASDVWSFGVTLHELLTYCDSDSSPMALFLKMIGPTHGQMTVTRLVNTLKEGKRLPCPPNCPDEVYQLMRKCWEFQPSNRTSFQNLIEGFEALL

| Compound | IC50 [1] [µM] | IC50 [2] [µM] | IC50 [3] [µM] | IC50 [4] [µM] |
| --- | --- | --- | --- | --- |
| Cc1cc(Nc2cc(NCc3ccccc3)c(C(N)=O)cn2)ccc1C(=O)N1CCOCC1 [Example 447, 4-(benzylamino)-6-(3-methyl-4-(morpholine-4-carbonyl)phenylamino)nicotinamide] | 0.1 to 1 | 0.001 to 0.01 | 0.1 to 1 | 0.01 to 0.1 |
| CC(=O)N1CCN(c2ccc(Nc3cc(NCc4ccc(F)cc4)c(C(N)=O)cn3)cc2)CC1 [Example 252, 6-(4-(4-acetylpiperazin-1-yl)phenylamino)-4-(4-fluorobenzylamino)nicotinamide] | > 1 | 0.01 to 0.1 | > 1 | 0.1 to 1 |
| CCC(=O)N1CCC(c2ccc(Nc3cc(NCc4ccccc4)c(C(N)=O)cn3)cc2)CC1 [Example 198, 4-(benzylamino)-6-(4-(1-propionylpiperidin-4-yl)phenylamino)nicotinamide] | > 1 | 0.001 to 0.01 | 0.1 to 1 | 0.1 to 1 |
| Cc1cc(Nc2cc(NCc3ccccc3)c(C(N)=O)cn2)ccc1C(=O)N1CC=CC1 [Example 451, 4-(benzylamino)-6-(4-(2,5-dihydro-1H-pyrrole-1-carbonyl)-3-methylphenylamino)nicotinamide] | 0.1 to 1 | 0.001 to 0.01 | 0.1 to 1 | 0.01 to 0.1 |
| CCC(=O)N1CCC(c2ccc(Nc3cc(NCC4(O)CCCC4)c(C(N)=O)cn3)cc2)CC1 [Example 193, 4-((1-hydroxycyclopentyl)methylamino)-6-(4-(1-propionylpiperidin-4-yl)phenylamino)nicotinamide] | > 1 | 0.01 to 0.1 | 0.1 to 1 | 0.1 to 1 |
| NC(=O)c1cc(F)c(Nc2cccc(-n3nccn3)c2)nc1N [Example 24, 6-(3-(2H-1,2,3-triazol-2-yl)phenylamino)-2-amino-5-fluoronicotinamide] | > 1 | > 1 | > 1 | > 1 |
| CCC(=O)N1CCC(c2ccc(Nc3cc(NCc4cncc(F)c4)c(C(N)=O)cn3)cc2)CC1 [Example 188, 4-((5-fluoropyridin-3-yl)methylamino)-6-(4-(1-propionylpiperidin-4-yl)phenylamino)nicotinamide] | 0.1 to 1 | 0.001 to 0.01 | 0.1 to 1 | 0.01 to 0.1 |
| COc1cc(Nc2cc(NCc3ccccc3)c(C(N)=O)cn2)ccc1C(=O)N(C)C [Example 436, 4-(benzylamino)-6-(4-(dimethylcarbamoyl)-3-methoxyphenylamino)nicotinamide] | > 1 | 0.001 to 0.01 | 0.1 to 1 | 0.1 to 1 |
| CC(=O)N1CCC[C@H](CNc2cc(Nc3ccc(C(=O)N4CCCC4)cc3)ncc2C(N)=O)C1 [Example 265, (R)-4-((1-acetylpiperidin-3-yl)methylamino)-6-(4-(pyrrolidine-1-carbonyl)phenylamino)nicotinamide] | > 1 | 0.01 to 0.1 | 0.1 to 1 | 0.1 to 1 |
| NC(=O)c1cnc(Nc2ccc(Cl)cc2)cc1NCc1ccccc1 [Example 13, 4-(benzylamino)-6-(4-chlorophenylamino)nicotinamide] | > 1 | 0.1 to 1 | > 1 | > 1 |
| CC(=O)Nc1cccc(Nc2nc(N)c(C(N)=O)cc2F)c1 [Example 21, 6-(3-acetamidophenylamino)-2-amino-5-fluoronicotinamide] | > 1 | > 1 | > 1 | > 1 |
| NC(=O)c1cnc(Nc2cccc(OCCN3CCCC3)c2)cc1NC1(c2ccccc2)CC1 [Example 363, 4-(1-phenylcyclopropylamino)-6-(3-(2-(pyrrolidin-1-yl)ethoxy)phenylamino)nicotinamide] | > 1 | 0.01 to 0.1 | > 1 | 0.1 to 1 |
